Usually zone of inhibition stands for the extent of the growth-free halo in a diffusion test.

Assay [1] deals with P. aeruginosa (ATCC 27853). Description: Disk diffusion antimicrobial test, P. aeruginosa. It counts as cell-based, Pseudomonas areuginosa. To be noted: Pseudomonas aeruginosa, ATCC27853, Gram-negative, 20 mg per disc (title), concentration 20 µg (footnote). The procedure: (§1) The newly synthesized compounds were chosen to be evaluated in vitro towards a variety of pathogenic microorganisms; Gram-positive bacteria: S. aureus (ATCC 6538) and B. subtilis (ATCC 6633); Gram-negative bacteria: P. areuginosa (ATCC 27853) and E. coli (DSMZ 1058); yeast: C. albicans (ATCC 10231) and S. cerevisiae (ATCC 9080) and fungi: A. niger (NRRL A-326) using the disk diffusion method at a single dose of 20 µl. The results are shown in Table 1 as the growth inhibition zone (mm).
The antimicrobial activity of target compounds were evaluated to be in vitro against a variety of pathogenic microorganisms, namely Staphylococcus aureus (ATCC 6538), Bacillus subtilis (ATCC 6633) (Gram-positive bacteria), Pseudomonas areuginosa (ATCC 27853), Escherichia coli (DSMZ 1058) (Gram-negative bacteria), Candida albicans (ATCC 10231), Saccharomyces cerevisiae (ATCC 9080) (Yeast) and Aspergillus niger (NRRL A-326) (Fungi) using the disk diffusion method at a single dose of 20 µg. The microorganisms were served and obtained from the Microbial Biotechnology Department, National Research Center, Giza, Egypt. Amphotericin, amoxicillin and ciprofloxacin were used as reference drugs (Oxoid™ Disks). The tested compounds 11a–c, 12a–c, 13a–i, 14a–i and 15a,b were dissolved in dimethylsulphoxide (DMSO) at a concentration of 1 mg/mL. Aliquots of 20 μl were soaked on filter paper discs (6 mm) and dried at room temperature under sterilized conditions. The paper discs were placed on inoculated agar plats and then incubated for 24 h at 37 °C for bacterial strains and after 48–72 h incubation at 30 °C for fungi. Both bacterial and yeast strains were grown on nutrient agar medium (g/l): beef extract, 3; peptone, 10 and agar, 20 at pH of 7.2. The fungal strain was grown on Czapek-Dox medium (g/l): sucrose, 30; NaNO3, 3; MgSO4.7H2O, 0.5l; KCl, 0.5; FeSO4, 0.01; K2HPO4, 1 and agar, 20 at pH of 6.0.
(Agar diffusion results depend on both activity and mobility in agar.)

In another assay the test system is E. coli (DSMZ 1058). The assay can be described thus: Disk diffusion antimicrobial test, E. coli. Format: cell-based. The conditions noted are these: Escherichia coli, DSMZ1058, Gram-negative, 20 mg per disc (title), concentration 20 µg (footnote). The procedure:
as §1
The antimicrobial activity of target compounds were evaluated to be in vitro against a variety of pathogenic microorganisms, namely Staphylococcus aureus (ATCC 6538), Bacillus subtilis (ATCC 6633) (Gram-positive bacteria), Pseudomonas areuginosa (ATCC 27853), Escherichia coli (DSMZ 1058) (Gram-negative bacteria), Candida albicans (ATCC 10231), Saccharomyces cerevisiae (ATCC 9080) (Yeast) and Aspergillus niger (NRRL A-326) (Fungi) using the disk diffusion method at a single dose of 20 µg. The microorganisms were served and obtained from the Microbial Biotechnology Department, National Research Center, Giza, Egypt. Amphotericin, amoxicillin and ciprofloxacin were used as reference drugs (Oxoid™ Disks). The tested compounds 11a–c, 12a–c, 13a–i, 14a–i and 15a,b were dissolved in dimethylsulphoxide (DMSO) at a concentration of 1 mg/mL. […]

Regarding `O=C(O)c1cn(C2CC2)c2cc(N3CCNCC3)c(F)cc2c1=O` [Ciprofloxacin, ciprofloxacin, reference compound], the figures for the zone of inhibition at 20 µg/disc (in assay [1]; in the assay on E. coli (DSMZ 1058)) were 30.2 mm and 25.8 mm, respectively.

Values taken from article PMC7179167 (Molecules, 2020).
